Test results from the supplement of paper PMC13386468.

Tests used:
Assay in all cases: IC50 for competition of protein binding to Kinobeads
Details in all cases: assay detail: Kinobeads competition in P. falciparum blood-stage lysate
[1] = molecular target: Q8ICR0 (UniProt O15865)
[2] = molecular target: UniProt B9ZSI3
[3] = molecular target: UniProt C0H4K8
[4] = molecular target: UniProt C0H4V4
[5] = molecular target: UniProt C0H4Y6
[6] = molecular target: UniProt C0H5I7
[7] = molecular target: UniProt C6KST5
[8] = molecular target: UniProt C6KSV4
[9] = molecular target: UniProt C6KSX2
[10] = molecular target: UniProt C6KSY6
[11] = molecular target: UniProt C6KT25
[12] = molecular target: UniProt C6KT76
[13] = molecular target: UniProt O96198
[14] = molecular target: UniProt O97231
Chain of UniProt O97231 (O97231 whole entry): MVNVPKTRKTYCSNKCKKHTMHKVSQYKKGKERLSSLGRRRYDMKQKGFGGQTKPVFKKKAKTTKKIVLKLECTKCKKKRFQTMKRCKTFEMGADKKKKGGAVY

[15] = molecular target: UniProt O97249
Chain of UniProt O97249 (O97249 whole entry): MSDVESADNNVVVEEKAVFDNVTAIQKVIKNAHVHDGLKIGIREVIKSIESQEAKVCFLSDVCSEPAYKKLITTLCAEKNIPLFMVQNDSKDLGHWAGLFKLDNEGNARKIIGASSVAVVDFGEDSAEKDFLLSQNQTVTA

[16] = molecular target: UniProt P46468
Chain of UniProt P46468 (P46468 whole entry): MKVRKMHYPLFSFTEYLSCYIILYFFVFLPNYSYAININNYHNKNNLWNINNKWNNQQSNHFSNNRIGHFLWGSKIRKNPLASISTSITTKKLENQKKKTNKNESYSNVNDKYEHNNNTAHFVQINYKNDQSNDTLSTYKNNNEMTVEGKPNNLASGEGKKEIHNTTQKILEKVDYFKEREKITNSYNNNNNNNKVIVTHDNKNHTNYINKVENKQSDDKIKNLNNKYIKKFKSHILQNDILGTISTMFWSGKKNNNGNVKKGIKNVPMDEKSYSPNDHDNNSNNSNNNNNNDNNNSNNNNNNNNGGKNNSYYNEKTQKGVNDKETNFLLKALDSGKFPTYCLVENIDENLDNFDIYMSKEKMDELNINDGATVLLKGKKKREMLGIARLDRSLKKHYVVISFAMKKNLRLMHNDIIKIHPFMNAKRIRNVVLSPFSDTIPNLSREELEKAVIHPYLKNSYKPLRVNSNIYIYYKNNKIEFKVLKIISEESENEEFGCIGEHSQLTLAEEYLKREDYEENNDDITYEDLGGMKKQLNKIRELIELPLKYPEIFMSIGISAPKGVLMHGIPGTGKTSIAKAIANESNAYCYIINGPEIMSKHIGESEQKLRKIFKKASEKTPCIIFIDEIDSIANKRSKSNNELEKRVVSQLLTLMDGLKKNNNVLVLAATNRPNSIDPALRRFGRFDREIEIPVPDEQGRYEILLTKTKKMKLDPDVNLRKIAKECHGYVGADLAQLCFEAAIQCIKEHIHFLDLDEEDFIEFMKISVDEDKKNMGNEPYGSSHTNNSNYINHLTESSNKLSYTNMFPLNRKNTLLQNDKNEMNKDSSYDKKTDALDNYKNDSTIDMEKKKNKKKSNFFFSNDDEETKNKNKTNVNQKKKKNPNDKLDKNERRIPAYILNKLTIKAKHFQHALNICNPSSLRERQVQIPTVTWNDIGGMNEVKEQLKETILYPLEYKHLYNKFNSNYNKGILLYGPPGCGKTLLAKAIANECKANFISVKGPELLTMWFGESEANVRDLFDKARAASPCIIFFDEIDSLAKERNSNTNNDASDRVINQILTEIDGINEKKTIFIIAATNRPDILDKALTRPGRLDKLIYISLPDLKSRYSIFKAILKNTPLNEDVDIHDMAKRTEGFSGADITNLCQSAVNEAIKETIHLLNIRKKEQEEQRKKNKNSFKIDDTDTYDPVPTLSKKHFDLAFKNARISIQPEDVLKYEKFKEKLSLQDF

[17] = molecular target: UniProt Q76NM8
[18] = molecular target: UniProt Q8I0V4
[19] = molecular target: UniProt Q8I2B1
[20] = molecular target: UniProt Q8I2I8
[21] = molecular target: UniProt Q8I3N3
[22] = molecular target: UniProt Q8I3V8
[23] = molecular target: UniProt Q8I4Z2
[24] = molecular target: UniProt Q8I586
[25] = molecular target: UniProt Q8I5R7
Chain of UniProt Q8I5R7 (Q8I5R7 whole entry): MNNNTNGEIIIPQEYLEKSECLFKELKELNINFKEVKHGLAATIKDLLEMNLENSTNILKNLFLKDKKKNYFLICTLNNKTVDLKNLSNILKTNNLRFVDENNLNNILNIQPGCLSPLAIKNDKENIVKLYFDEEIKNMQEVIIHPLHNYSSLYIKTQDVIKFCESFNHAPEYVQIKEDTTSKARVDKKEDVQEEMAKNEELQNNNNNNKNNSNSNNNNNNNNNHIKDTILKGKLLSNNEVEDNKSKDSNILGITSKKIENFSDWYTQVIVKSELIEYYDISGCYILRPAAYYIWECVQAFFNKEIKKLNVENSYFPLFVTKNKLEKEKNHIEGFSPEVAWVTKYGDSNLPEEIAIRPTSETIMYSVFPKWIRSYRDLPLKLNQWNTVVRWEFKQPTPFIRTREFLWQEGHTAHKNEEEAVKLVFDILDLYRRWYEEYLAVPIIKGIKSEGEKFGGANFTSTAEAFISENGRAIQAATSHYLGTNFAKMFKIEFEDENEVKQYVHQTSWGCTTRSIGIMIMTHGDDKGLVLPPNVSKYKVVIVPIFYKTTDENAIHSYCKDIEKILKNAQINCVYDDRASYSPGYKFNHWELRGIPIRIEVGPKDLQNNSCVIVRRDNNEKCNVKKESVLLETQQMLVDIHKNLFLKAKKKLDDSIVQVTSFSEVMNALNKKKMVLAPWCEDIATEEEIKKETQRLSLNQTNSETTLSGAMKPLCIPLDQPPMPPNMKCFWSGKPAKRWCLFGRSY

[26] = molecular target: UniProt Q8IB66
[27] = molecular target: UniProt Q8IBN7
[28] = molecular target: UniProt Q8IC06
[29] = molecular target: UniProt Q8IDN4
Chain of UniProt Q8IDN4 (Q8IDN4 whole entry): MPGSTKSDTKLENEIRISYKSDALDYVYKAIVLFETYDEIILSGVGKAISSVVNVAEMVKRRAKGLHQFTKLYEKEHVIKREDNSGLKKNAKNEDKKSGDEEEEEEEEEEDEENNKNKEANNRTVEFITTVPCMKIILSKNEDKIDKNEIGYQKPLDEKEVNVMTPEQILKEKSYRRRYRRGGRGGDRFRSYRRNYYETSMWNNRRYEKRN

[30] = molecular target: UniProt Q8IDY6
[31] = molecular target: UniProt Q8IE09
[32] = molecular target: UniProt Q8IFP2
[33] = molecular target: UniProt Q8IHR6
[34] = molecular target: UniProt Q8II00
[35] = molecular target: UniProt Q8IIB4
[36] = molecular target: UniProt Q8IIC0
[37] = molecular target: UniProt Q8IIR0
[38] = molecular target: UniProt Q8IIV1
[39] = molecular target: UniProt Q8IJA9
Chain of UniProt Q8IJA9 (Q8IJA9 whole entry): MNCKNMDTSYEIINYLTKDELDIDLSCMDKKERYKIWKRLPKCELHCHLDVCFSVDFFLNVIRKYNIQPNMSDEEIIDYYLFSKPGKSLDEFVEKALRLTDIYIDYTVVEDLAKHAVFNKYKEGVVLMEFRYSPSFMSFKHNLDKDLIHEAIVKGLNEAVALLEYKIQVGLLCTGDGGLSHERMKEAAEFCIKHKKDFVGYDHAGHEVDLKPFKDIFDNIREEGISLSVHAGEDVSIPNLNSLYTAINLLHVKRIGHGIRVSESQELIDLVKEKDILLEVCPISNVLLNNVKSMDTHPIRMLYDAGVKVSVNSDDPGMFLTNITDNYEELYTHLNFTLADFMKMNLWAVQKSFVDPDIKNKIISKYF

[40] = molecular target: UniProt Q8IJD4
Chain of UniProt Q8IJD4 (Q8IJD4 whole entry): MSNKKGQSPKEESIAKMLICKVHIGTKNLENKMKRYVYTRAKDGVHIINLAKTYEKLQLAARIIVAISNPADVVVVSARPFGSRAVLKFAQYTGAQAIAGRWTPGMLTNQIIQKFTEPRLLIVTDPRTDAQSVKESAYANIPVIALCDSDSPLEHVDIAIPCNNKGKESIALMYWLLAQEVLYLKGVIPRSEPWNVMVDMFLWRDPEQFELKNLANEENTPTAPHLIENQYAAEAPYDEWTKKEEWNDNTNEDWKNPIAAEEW

[41] = molecular target: UniProt Q8IJV7
[42] = molecular target: UniProt Q8IKK7
[43] = molecular target: UniProt Q8IKN7
[44] = molecular target: UniProt Q8IKU1
[45] = molecular target: UniProt Q8IL22
[46] = molecular target: UniProt Q8ILF0
[47] = molecular target: UniProt Q8ILQ3
[48] = molecular target: UniProt Q8ILV2
[49] = molecular target: UniProt Q8ILW6
Chain of UniProt Q8ILW6 (Q8ILW6 whole entry): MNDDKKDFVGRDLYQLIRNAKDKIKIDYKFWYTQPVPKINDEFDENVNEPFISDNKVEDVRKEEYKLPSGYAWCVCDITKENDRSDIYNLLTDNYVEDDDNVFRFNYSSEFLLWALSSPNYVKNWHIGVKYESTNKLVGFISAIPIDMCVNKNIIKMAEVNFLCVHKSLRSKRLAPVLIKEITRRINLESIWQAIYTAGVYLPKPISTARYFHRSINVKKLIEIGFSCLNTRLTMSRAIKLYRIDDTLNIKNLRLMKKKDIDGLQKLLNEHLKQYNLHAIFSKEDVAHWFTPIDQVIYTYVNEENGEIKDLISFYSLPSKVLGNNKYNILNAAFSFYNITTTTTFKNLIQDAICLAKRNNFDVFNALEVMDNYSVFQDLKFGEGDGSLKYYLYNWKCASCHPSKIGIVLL

[50] = molecular target: UniProt Q8ILZ3
[51] = molecular target: UniProt Q8IM32

Measured: IC50
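Further: native unpurified kinases from lysate captured on beads bearing immobilized kinase inhibitors, with bead-bound kinases quantified by mass spectrometry across compound doses.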

Chain of Q8ICR0 (O15865 whole entry, one chain of several): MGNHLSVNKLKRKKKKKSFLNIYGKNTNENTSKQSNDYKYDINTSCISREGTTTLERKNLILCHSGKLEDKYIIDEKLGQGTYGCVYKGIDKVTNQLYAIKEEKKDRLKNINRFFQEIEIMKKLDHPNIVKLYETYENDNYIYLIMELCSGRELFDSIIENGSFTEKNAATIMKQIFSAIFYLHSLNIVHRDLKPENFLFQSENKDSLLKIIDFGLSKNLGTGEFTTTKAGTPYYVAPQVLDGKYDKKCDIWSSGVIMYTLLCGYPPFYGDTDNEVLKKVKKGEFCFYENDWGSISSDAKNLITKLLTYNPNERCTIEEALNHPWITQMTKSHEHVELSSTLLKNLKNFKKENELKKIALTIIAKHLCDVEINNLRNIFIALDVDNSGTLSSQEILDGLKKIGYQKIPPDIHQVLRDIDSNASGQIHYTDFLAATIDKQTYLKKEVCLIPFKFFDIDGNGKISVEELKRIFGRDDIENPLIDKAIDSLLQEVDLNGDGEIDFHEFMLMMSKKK

O=c1[nH]c2ccc(Cl)cc2c(NC2CN3CCC2CC3)c1-c1nc2ccccc2[nH]1 (stereo unspecified) [CHIR-124]
> 20 µM: all assays above
